Results published in US11767341B2, “Lincosamide antibiotics and uses thereof” (President and Fellows of Harvard College, priority 2017, dated 2023).
Values after ≈ are worked out from the molar mass of the structure shown. Read-outs that look alike come from different tables or passages of the source.

Assays:
Experiment in all cases: MIC determination
Format in all cases: cell-based
[1] = test system: P. aeruginosa ATCC 27853; conditions: Pseudomonas aeruginosa, ATCC27853
[2] = test system: S. pneumoniae MMX 3028 cErmB; conditions: Streptococcus pneumoniae, MMX3028CERMB
[3] = test system: S. pneumoniae MMX 3031 cMefA; conditions: Streptococcus pneumoniae, MMX3031CMEFA
[4] = test system: E. faecalis MMX 847 Macrolide-Resistant; conditions: Enterococcus faecalis
[5] = test system: S. aureus MMX 3035 cErmA; conditions: Staphylococcus aureus, MMX3035CERMA
[6] = test system: B. fragilis ATCC 25285; conditions: Bacteroides fragilis, ATCC25285
[7] = test system: C. difficile BAA 1805; conditions: Clostridioides difficile, BAA1805; C. difficile BAA 1805; read-out: MIC
[8] = test system: S. aureus BAA 977 iErmA; conditions: Staphylococcus aureus, BAA977
[9] = test system: P. aeruginosa MMX Mex parent strain; conditions: Pseudomonas aeruginosa
[10] = test system: S. aureus Micromyx USA 300; conditions: Staphylococcus aureus, USA300; S. aureus Micromyx USA 300; read-out: MIC
[11] = test system: E. faecalis ATCC 29212; conditions: Enterococcus faecalis, ATCC29212, read-out: MIC
[12] = test system: H. influenzae ATCC 49247; conditions: Haemophilus influenzae, ATCC49247
[13] = test system: S. pneumoniae ATCC 49619; conditions: Streptococcus pneumoniae, ATCC49619; S. pneumoniae ATCC 49619; read-out: MIC
[14] = test system: P. aeruginosa MMX 3476 Δmex; conditions: Pseudomonas aeruginosa
[15] = test system: E. coli MMX TolC parent strain; conditions: Escherichia coli
[16] = test system: S. pyogenes ATCC 19615; conditions: Streptococcus pyogenes, ATCC19615; S. pyogenes ATCC 19615; read-out: MIC
[17] = test system: S. pyogenes MMX 946 Macrolide-Resistant; conditions: Streptococcus pyogenes
[18] = test system: S. aureus ATCC 29213; conditions: Staphylococcus aureus, ATCC29213, S. aureus ATCC 29213; read-out: MIC
[19] = test system: E. coli MMX 0121 ΔTolC; conditions: Escherichia coli
[20] = test system: E. coli ATCC 25922; conditions: Escherichia coli
[21] = test system: E. coli MP-74 LptD mutant; conditions: Escherichia coli
[22] = test system: S. aureus MP-549 msr(a) USA 300; conditions: Staphylococcus aureus, USA300, S. aureus MP-549 msr(a) USA 300
[23] = test system: K. pneumoniae ATCC 10031; conditions: Klebsiella pneumoniae, ATCC10031; K. pneumoniae ATCC 10031; read-out: MIC
[24] = test system: E. coli MP-9 ΔTolC; conditions: Escherichia coli
[25] = S. pneumoniae MMX 3028 cErmB, read-out: MIC
[26] = S. pyogenes MMX 946 Macrolide-Resistant (MacRes), read-out: MIC
[27] = E. faecalis MMX 847 Macrolide-Resistant (MacRes), read-out: MIC
[28] = S. aureus MMX 3035 cErmA, read-out: MIC
[29] = B. fragilis ATCC 25285, read-out: MIC
[30] = H. influenzae ATCC 49247, read-out: MIC
[31] = E. coli MMX TolC parent strain, read-out: MIC
[32] = ATCC25922, E. coli ATCC 25922, read-out: MIC

SMILES	MIC [1] [µg/mL]	MIC [2] [µg/mL]	MIC [3] [µg/mL]	MIC [4] [µg/mL]	MIC [5] [µg/mL]	MIC [6] [µg/mL]	MIC [7] [µg/mL]	MIC [8] [µg/mL]	MIC [9] [µg/mL]	MIC [10] [µg/mL]	MIC [11] [µg/mL]	MIC [12] [µg/mL]	MIC [13] [µg/mL]	MIC [14] [µg/mL]	MIC [15] [µg/mL]	MIC [16] [µg/mL]	MIC [17] [µg/mL]	MIC [18] [µg/mL]	MIC [19] [µg/mL]	MIC ([20]; ATCC25922) [µg/mL]	other results
CSC1O[C@H]([C@H](NC(=O)[C@H]2NC[C@@H]3C=C(c4ccc(F)cc4)CCO[C@@H]23)[C@H](C)Cl)C(O)[C@@H](O)[C@H]1O (stereo partly shown) [FSA-507052]	> 32	> 32	0.12 (≈ 0.226 µM)	> 32	> 32	> 32	16 (≈ 30.1 µM)	2 (≈ 3.77 µM)	> 32	0.5 (≈ 0.942 µM)	1 (≈ 1.88 µM)	> 32	0.25 (≈ 0.471 µM)	> 32	> 32	0.25 (≈ 0.471 µM)	> 32	2 (≈ 3.77 µM)	> 32	> 32	–
CSC1O[C@H]([C@H](NC(=O)[C@H]2NC[C@@H]3C=C(c4ccc(C(F)(F)F)cc4)CCO[C@@H]23)[C@H](C)Cl)C(O)[C@@H](O)[C@H]1O (stereo partly shown) [FSA-507053]	> 64	–	0.12 (≈ 0.207 µM)	> 64	> 64	16 (≈ 27.5 µM)	8 (≈ 13.8 µM)	0.25 (≈ 0.43 µM)	> 64	0.12 (≈ 0.207 µM)	2 (≈ 3.44 µM)	16 (≈ 27.5 µM)	0.25 (≈ 0.43 µM)	> 64	> 64	≤ 0.06	–	0.25 (≈ 0.43 µM)	16 (≈ 27.5 µM)	> 64	MIC [2, 25]: 32 µg/mL (≈ 55.1 µM); MIC [17, 26]: 32 µg/mL (≈ 55.1 µM)
CSC1O[C@H]([C@H](NC(=O)[C@H]2NC[C@@H]3CC(c4ccccc4)=CCO[C@H]32)[C@H](C)Cl)C(O)[C@@H](O)[C@H]1O (stereo partly shown) [FSA-507056]	> 32	> 32	0.12 (≈ 0.234 µM)	> 32	> 32	> 32	16 (≈ 31.2 µM)	1 (≈ 1.95 µM)	> 32	0.5 (≈ 0.975 µM)	2 (≈ 3.9 µM)	> 32	0.25 (≈ 0.487 µM)	> 32	> 32	0.25 (≈ 0.487 µM)	> 32	1 (≈ 1.95 µM)	> 32	> 32	–
CSC1O[C@H]([C@H](NC(=O)[C@H]2NC[C@@H]3CC(c4ccc(F)cc4)=CCO[C@H]32)[C@H](C)Cl)C(O)[C@@H](O)[C@H]1O (stereo partly shown) [FSA-507057]	> 64	64 (≈ 121 µM)	≤ 0.06	> 64	> 64	64 (≈ 121 µM)	16 (≈ 30.1 µM)	1 (≈ 1.88 µM)	> 64	0.5 (≈ 0.942 µM)	1 (≈ 1.88 µM)	64 (≈ 121 µM)	≤ 0.06	> 64	> 64	0.12 (≈ 0.226 µM)	> 64	2 (≈ 3.77 µM)	64 (≈ 121 µM)	> 64	–
CSC1O[C@H]([C@H](NC(=O)[C@H]2NC[C@@H]3CC(c4ccc(C(F)(F)F)cc4)=CCO[C@H]32)[C@H](C)Cl)C(O)[C@@H](O)[C@H]1O (stereo partly shown) [FSA-507060]	> 64	16 (≈ 27.5 µM)	0.25 (≈ 0.43 µM)	–	–	–	32 (≈ 55.1 µM)	1 (≈ 1.72 µM)	> 64	0.5 (≈ 0.861 µM)	8 (≈ 13.8 µM)	–	0.5 (≈ 0.861 µM)	> 64	–	0.25 (≈ 0.43 µM)	–	2 (≈ 3.44 µM)	16 (≈ 27.5 µM)	–	MIC [4, 27]: 32 µg/mL (≈ 55.1 µM); MIC [5, 28]: 32 µg/mL (≈ 55.1 µM); MIC [6, 29]: 32 µg/mL (≈ 55.1 µM); MIC [12, 30]: 32 µg/mL (≈ 55.1 µM); MIC [15, 31]: 64 µg/mL (≈ 110 µM); MIC [17, 26]: 32 µg/mL (≈ 55.1 µM); MIC [20, 32]: 64 µg/mL (≈ 110 µM)
CSC1O[C@H]([C@H](NC(=O)[C@H]2NC[C@@H]3C[C@@H](c4ccc(F)cc4)CCO[C@H]32)[C@H](C)Cl)C(O)[C@@H](O)[C@H]1O (stereo partly shown) [FSA-507061]	–	–	≤ 0.06	–	–	–	2 (≈ 3.75 µM)	0.25 (≈ 0.469 µM)	–	≤ 0.06	≤ 0.06	–	≤ 0.06	> 64	–	≤ 0.06	–	0.12 (≈ 0.225 µM)	2 (≈ 3.75 µM)	–	MIC ([1]; P. aeruginosa ATCC 27853, read-out: MIC): > 64 µg/mL; MIC [2, 25]: 4 µg/mL (≈ 7.5 µM); MIC [21]: 8 µg/mL (≈ 15 µM); MIC [4, 27]: 32 µg/mL (≈ 60 µM); MIC [5, 28]: 64 µg/mL (≈ 120 µM); MIC [22]: 0.125 µg/mL (≈ 0.234 µM); MIC [6, 29]: 64 µg/mL (≈ 120 µM); MIC ([9]; P. aeruginosa MMX Mex parent strain, read-out: MIC): > 64 µg/mL; MIC [12, 30]: 4 µg/mL (≈ 7.5 µM); MIC [23]: 16 µg/mL (≈ 30 µM); MIC [15, 31]: > 64 µg/mL; MIC [17, 26]: 4 µg/mL (≈ 7.5 µM); MIC [24]: 4 µg/mL (≈ 7.5 µM); MIC [20, 32]: 64 µg/mL (≈ 120 µM)
